What is called Km is the concentration of substrate that gives half-maximal velocity.

In publication PMC9855422, “Purification and Properties of Polyphenol Oxidase of Dried Volvariella bombycina” (Biology, 2022) one finds Km data, which are given here for three molecules.

The subject of assay [1] is T1, dried V. bombycina PPO (polyphenol oxidase).
T1 construct: single band about 25 kDa on SDS-PAGE
The assay can be described thus: spectrophotometric oxidation at […] nm, Lineweaver-Burk. In kind it is biochemical, Volvariella bombycina.

Assay [2] has the same test system. The assay is described as above. In kind it is biochemical, Volvariella bombycina. To be noted: optimum pH 8.0, 15 °C.

With `Cc1ccc(O)c(O)c1` [4-methyl catechol], the Km in assay [1] (optimum pH 9.0, 20 °C) is 3170 µM.

With `Oc1ccccc1O` [catechol], the Km in assay [1] (optimum pH 6.5, 15 °C, 0.1 M phosphate buffer) was 1670 µM.

As for `Oc1cccc(O)c1O` [pyrogallol], the Km in assay [2] was found to be 2670 µM.
